In patent US9650339B2, “Inhibitors of histone demethylases” (Gilead Sciences, Inc., priority 2013, dated 2017):

Tests used:
KDM2B (FBXL10) = molecular target: T1, KDM2B (FBXL10) (Homo sapiens, UniProt Q8NHM5); assay: Histone lysine demethylase AlphaLISA assay, KDM2B; format: biochemical; conditions: read-out: KDM2B HDME Inhibition IC50
T1 sequence (Q8NHM5 1-650): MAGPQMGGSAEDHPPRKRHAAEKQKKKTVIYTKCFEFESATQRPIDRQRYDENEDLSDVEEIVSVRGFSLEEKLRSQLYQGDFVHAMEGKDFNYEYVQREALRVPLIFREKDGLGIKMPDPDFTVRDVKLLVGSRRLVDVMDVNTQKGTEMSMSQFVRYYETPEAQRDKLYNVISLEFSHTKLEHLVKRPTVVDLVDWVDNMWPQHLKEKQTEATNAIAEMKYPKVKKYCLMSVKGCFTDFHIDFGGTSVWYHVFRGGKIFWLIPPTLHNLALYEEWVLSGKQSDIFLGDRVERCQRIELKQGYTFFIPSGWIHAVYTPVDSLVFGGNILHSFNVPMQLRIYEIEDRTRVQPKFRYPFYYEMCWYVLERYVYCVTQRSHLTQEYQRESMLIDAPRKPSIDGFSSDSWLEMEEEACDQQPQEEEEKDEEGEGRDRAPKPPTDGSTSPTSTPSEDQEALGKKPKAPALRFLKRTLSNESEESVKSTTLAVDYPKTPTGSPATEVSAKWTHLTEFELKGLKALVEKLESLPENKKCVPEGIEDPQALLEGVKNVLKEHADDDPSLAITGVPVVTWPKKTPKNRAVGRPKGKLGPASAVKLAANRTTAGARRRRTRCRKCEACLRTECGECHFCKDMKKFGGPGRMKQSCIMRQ
Experimental: (§1) Assays are performed analogously to the protocol described by PerkinElmer (Roy et al. PerkinElmer Technical Note: AlphaLISA #12, April 2011)
(§2) Enzymes are dissolved in enzyme buffer and incubated for 10 min before being added to 3% DMSO solutions of compounds in enzyme buffer. Incubated for another 10 minutes, before substrate solution is added and the reaction mixture is incubated at room temperature. 10 μL acceptor beads, suspended in Epigenetic Buffer (Perkin Elmer AL008) from stock, are added and the suspension is incubated in the dark at room temperature, before a suspension of streptavidin donor beads (Perkin Elmer 6760002) in Epigenetic Buffer is added. After incubation at room temperature in the dark the plates are read. […]
BH3K36M2: RKAAPATGGVK(Me2)KPHRYRPGTVK-(BIOTIN)? (Anaspec)
(§3) Substrate Solution: Substrate, 25 μM L-Asc, and 10 μM α-KG in Buffer A.

KDM4C (JMJD2C) = molecular target: T2, KDM4C (JMJD2C) (Homo sapiens, UniProt Q9H3R0); assay: Histone lysine demethylase AlphaLISA assay, KDM4C; format: biochemical; conditions: read-out: KDM4C HDME Inhibition IC50
T2 sequence (Q9H3R0 1-349): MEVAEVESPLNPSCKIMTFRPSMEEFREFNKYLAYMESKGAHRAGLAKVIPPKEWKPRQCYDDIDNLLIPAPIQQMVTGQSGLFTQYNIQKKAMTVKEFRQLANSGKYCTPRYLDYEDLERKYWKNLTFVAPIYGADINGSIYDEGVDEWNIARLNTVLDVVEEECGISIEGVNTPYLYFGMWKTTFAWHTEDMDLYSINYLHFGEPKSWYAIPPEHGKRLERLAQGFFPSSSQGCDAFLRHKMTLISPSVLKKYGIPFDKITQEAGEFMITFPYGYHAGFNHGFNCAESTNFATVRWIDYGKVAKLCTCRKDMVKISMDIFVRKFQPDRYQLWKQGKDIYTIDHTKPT
Experimental: as §1
Enzymes are dissolved in enzyme buffer and incubated for 10 min before being added to 3% DMSO solutions of compounds in enzyme buffer. Incubated for another 10 minutes, before substrate solution is added and the reaction mixture is incubated at room temperature. 10 μL acceptor beads, suspended in Epigenetic Buffer (Perkin Elmer AL008) from stock, are added and the suspension is incubated in the dark at room temperature, before a suspension of streptavidin donor beads (Perkin Elmer 6760002) in Epigenetic Buffer is added. After incubation at room temperature in the dark the plates are read.
BK9M3: Biotin-ARTKQTAR(KMe3)STGGKAPRKQ-NH2 (Caslo, Denmark) […]
as §3

KDM5B (PLU-1) = molecular target: T3, KDM5B (PLU-1) (Homo sapiens, UniProt Q9UGL1); assay: Histone lysine demethylase AlphaLISA assay, KDM5B; format: biochemical; conditions: read-out: KDM5B HDME Inhibition IC50
T3 sequence (Q9UGL1 1-809): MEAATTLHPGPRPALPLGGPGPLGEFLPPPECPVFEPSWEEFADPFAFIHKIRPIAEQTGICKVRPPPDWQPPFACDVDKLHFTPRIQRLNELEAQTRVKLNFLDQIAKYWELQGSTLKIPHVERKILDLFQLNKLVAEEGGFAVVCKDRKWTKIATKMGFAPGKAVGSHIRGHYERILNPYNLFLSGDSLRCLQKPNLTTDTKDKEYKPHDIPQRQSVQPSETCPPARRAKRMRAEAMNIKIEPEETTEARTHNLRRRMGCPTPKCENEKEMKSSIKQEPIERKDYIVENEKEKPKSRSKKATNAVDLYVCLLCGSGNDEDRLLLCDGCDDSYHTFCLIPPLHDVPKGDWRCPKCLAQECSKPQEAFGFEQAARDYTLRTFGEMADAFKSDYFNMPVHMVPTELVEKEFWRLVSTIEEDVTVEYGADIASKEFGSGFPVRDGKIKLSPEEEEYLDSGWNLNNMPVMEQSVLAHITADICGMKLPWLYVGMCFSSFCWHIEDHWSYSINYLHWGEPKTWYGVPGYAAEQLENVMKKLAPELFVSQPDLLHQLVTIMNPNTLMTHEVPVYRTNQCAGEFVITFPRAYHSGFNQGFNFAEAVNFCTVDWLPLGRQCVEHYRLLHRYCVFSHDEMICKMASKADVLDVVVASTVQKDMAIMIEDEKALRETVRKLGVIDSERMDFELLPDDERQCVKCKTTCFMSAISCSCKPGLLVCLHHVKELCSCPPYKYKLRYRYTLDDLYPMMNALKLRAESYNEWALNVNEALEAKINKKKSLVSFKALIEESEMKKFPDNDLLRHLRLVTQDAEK
Experimental: as §1, §2
H3K4M3B: H-ART(Kme3)QTARKSTGGKAPRKQLA-NH-Biotin (Caslo, Denmark) […]
as §3

KDM6A (UTX) = KDM6A (UTX) (Homo sapiens, UniProt O15550); assay: Histone lysine demethylase AlphaLISA assay, KDM6A; format: biochemical; conditions: read-out: KDM6A HDME Inhibition IC50
Sequence of KDM6A (UTX) (O15550 919-1401): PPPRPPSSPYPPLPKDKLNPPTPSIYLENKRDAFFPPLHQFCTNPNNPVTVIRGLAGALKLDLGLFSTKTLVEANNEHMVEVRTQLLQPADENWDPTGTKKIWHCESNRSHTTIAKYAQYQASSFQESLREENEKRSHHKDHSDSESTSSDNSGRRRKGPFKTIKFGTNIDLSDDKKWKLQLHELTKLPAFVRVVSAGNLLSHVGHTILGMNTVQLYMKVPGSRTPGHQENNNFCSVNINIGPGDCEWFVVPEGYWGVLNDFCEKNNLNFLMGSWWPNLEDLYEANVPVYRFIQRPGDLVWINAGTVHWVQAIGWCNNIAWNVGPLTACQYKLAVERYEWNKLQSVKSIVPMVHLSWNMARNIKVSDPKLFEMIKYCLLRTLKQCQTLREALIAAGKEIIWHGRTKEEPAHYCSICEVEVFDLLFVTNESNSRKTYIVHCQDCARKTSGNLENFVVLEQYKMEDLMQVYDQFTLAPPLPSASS
Experimental: as §1, §2
BK27M3: Biotin-ATKAAR(Kme3)SAPATGGVKKPHRY-NH2? (Caslo, Denmark) […]
as §3

KDM7 (PHF8) = molecular target: T4, KDM7 (PHF8) (Homo sapiens, UniProt Q9UPP1); assay: Histone lysine demethylase AlphaLISA assay, KDM7; format: biochemical; conditions: read-out: PHF8 HDME Inhibition IC50
T4 construct: KDM7 (PHF8); BRIC; 1-1322; Bac
T4 sequence (Q9UPP1 37-440 limits assumed): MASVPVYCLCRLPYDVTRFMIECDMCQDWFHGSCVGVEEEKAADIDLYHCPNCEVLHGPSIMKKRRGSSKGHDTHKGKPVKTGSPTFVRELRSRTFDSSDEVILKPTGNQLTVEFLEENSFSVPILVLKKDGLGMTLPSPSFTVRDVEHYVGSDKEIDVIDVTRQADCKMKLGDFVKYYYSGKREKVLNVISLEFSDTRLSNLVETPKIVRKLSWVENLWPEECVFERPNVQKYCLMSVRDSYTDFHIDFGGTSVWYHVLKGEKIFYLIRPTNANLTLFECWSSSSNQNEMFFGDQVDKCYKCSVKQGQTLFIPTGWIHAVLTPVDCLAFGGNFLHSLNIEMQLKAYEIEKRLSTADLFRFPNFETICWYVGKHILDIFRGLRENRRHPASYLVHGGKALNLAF
Experimental: as §1, §2
BK9M2: Biotin-ARTKQTAR(KMe2)STGGKAPRKQ-NH2 (AnaSpec 64359)
BK9M1: Biotin-ARTKQTAR(KMe1)STGGKAPRKQ-NH2 (AnaSpec 64358) […]
as §3

H3K4me3 mark = assay: Histone lysine demethylase immunofluorescence assay, non-transfected U2OS cells; format: cell-based; conditions: Homo sapiens, staining of the H3K4me3 mark, 20 hours incubation with compound
Experimental: U2OS cells were harvested and seeded into multi well plates into media containing compound. The media used was DMEM containing 5% FBS and pen/strep. 20 hours after incubation of cells with compounds, the cells were washed once in PBS, harvested by fixation with formaldehyde 4% aqueous solution, and washed in PBS. Subsequently, the cells were permeabilized in PBS with 0.2% Triton X-100. Blocking was performed in PBS with 0.2% Triton X-100 and 5% FBS. The cells were incubated with αH3K4me3 primary antibody (Cell Signaling, #9751S) in blocking solution over night at 4° C. After incubation with primary antibody, the cells were washed with PBS, incubated with secondary antibody (Alexa fluor 594 goat anti rabbit IgG, Invitrogen, A11012) and Hoechst, (Sigma, 33342) in blocking solution, and washed again with PBS. Finally, PBS was added and high throughput imaging and analysis were performed by an IN Cell Analyzer 1000 (GE Healthcare). The IC50 values were based on an average measure of the staining of the H3K4me3 mark in cells.

MCF7 cells = assay: Cell proliferation assay MCF7; format: cell-based; conditions: MCF7 human breast cancer cells; 120 hours; ATPlite 1 Step
Experimental: MCF7 cells were seeded in multi well plates at a density optimized to give approximately 90% confluent cells at the time of harvest. Cells were incubated for 24 hours before addition of compound. Compounds were diluted in complete medium and added to the plates in duplicates. The final concentration of DMSO was maximum 0.5%. Complete medium used was DMEM with GlutaMAX containing 10% FBS and pen/strep.
120 hours after addition of compounds, the plates were harvested and analyzed by ATPlite 1 Step (Perkin Elmer, cat no 6016739) according to the manufactures recommendation.

[1] = test system: OPM-2 subcutaneous mouse xenograft model of multiple myeloma; assay: Inhibition of tumor growth in mouse xenograft model; format: in vivo, NOD/SCID mice (Mus Musculus); conditions: QD × 4/week × 2
Text: Briefly, NOD/SCID mice γ-irradiated with ^60Co (200 rad) (12 animals/group) were inoculated subcutaneously with 8×10^6 OPM-2 cells assisted with Matrigel. Dosing according to the table below started when tumors reached an average size of ˜100 mm^3 (day 15). Dosing continued until the average size of tumors in the vehicle group reached ˜2000 mm^3 (day 31).
Animals were 7 weeks old female NOD/SCID mice (Mus Musculus), supplied by Beijing HFK Bio-Technology Co. Ltd. (Beijing, china). Body weight was approx. 16-23 g. Before commencement of treatment, all animals were weighed and tumor volumes were measured, and mice were assigned into groups using randomized block design based upon their tumor volumes.
OPM-2 tumor cells were maintained in vitro in RPMI1640 medium supplemented with 20% fetal bovine serum at 37° C. in an atmosphere of 5% CO2 in air. The tumor cells were routinely subcultured twice weekly. The cells growing in an exponential growth phase were harvested and counted for tumor inoculation.
Tumor sizes were measured three times weekly in two dimensions using a caliper, and the volume was expressed in mm^3 using the formula: V=0.5 a×b^2 where a and b were the long and short diameters of the tumor, respectively.

Question: Which IC50 (KDM2B (FBXL10)) does the source give for `CCN(CC)CCCCNCc1cc(CNC(=O)C(=O)O)ccn1` [Compound 27, ({[2-({[4-(diethylamino)-butyl]amino}methyl)pyridin-4-yl]methyl}carbamoyl)-formic acid] here?
Answer: The IC50 was greater than 2.5 µM.

Question: And the IC50 (KDM4C (JMJD2C))?
Answer: Its IC50 is greater than 2.5 µM.

Question: What about the IC50 (KDM5B (PLU-1)) of the same compound?
Answer: The IC50 was less than 0.25 µM.

Question: What about the IC50 (KDM6A (UTX)) of the same compound?
Answer: The IC50 was greater than 2.5 µM.

Question: What about the IC50 (KDM7 (PHF8)) of the same compound?
Answer: Its IC50 is greater than 2.5 µM.

Question: And the IC50 (H3K4me3 mark)?
Answer: The IC50 was less than 0.25 µM.

Question: And the EC50 (MCF7 cells)?
Answer: The EC50 was 0.25 to 2.5 µM.

Question: With `CCN(C[C@@H]1CCC[C@@H]1N(C)C)C(=O)CNCc1cc(/C=N/CCO)ccn1` [Compound 85, N-{[(1S,2S)-2-(dimethylamino)-cyclopentyl]methyl}-N-ethyl-2-[({4-[[(2-hydroxyethyl)imino]-methyl]pyridin-2-yl}methyl)amino] acetamide-] as the compound, how does the IC50 (KDM2B (FBXL10)) read?
Answer: Its IC50 is greater than 2.5 µM.

Question: And the IC50 (KDM4C (JMJD2C))?
Answer: The IC50 was less than 0.25 µM.

Question: What about the IC50 (KDM5B (PLU-1)) of the same compound?
Answer: Its IC50 is less than 0.25 µM.

Question: What about the IC50 (KDM6A (UTX)) of the same compound?
Answer: Its IC50 is greater than 2.5 µM.

Question: What about the IC50 (H3K4me3 mark) of the same compound?
Answer: Its IC50 is less than 0.25 µM.

Question: And the EC50 (MCF7 cells)?
Answer: Its EC50 is 0.25 to 2.5 µM.

Question: For `CCN(CCN(C)C)C(=O)CNCc1cc(/C=N/CC2(CO)CC2)ccn1` [Compound 88, N-[2-(dimethylamino)-ethyl]-N-ethyl-2-[({4-[({[1-(hydroxymethyl)cyclopropyl]methyl}imino)methyl]pyridin-2-yl}methyl)amino] acetamide], which IC50 (KDM2B (FBXL10)) is on record?
Answer: Its IC50 is greater than 2.5 µM.

Question: And the IC50 (KDM4C (JMJD2C))?
Answer: Its IC50 is 0.25 to 2.5 µM.

Question: And the IC50 (KDM5B (PLU-1))?
Answer: Its IC50 is less than 0.25 µM.

Question: What about the IC50 (KDM6A (UTX)) of the same compound?
Answer: The IC50 was greater than 2.5 µM.

Question: And the IC50 (KDM7 (PHF8))?
Answer: Its IC50 is greater than 2.5 µM.

Question: What about the IC50 (H3K4me3 mark) of the same compound?
Answer: The IC50 was less than 0.25 µM.

Question: And the EC50 (MCF7 cells)?
Answer: The EC50 was less than 0.25 µM.

Question: For `Nc1cccc2c1CN(C1CCC(=O)NC1=O)C2=O` (stereo not shown) [Lenolidomide, reference compound], which “Tumor Volume” value ([1]; day 15 after inoculation (start of dosing)) is on record?
Answer: The value was 101 ± 12 mm^3.

Question: And the “Tumor Volume” value ([1]; day 17 after inoculation)?
Answer: Its value is 156 ± 26 mm^3.

Question: What about the “Tumor Volume” value ([1]; day 19 after inoculation) of the same compound?
Answer: The value was 178 ± 36 mm^3.

Question: And the “Tumor Volume” value ([1]; day 21 after inoculation)?
Answer: Its value is 266 ± 56 mm^3.

Question: And the “Tumor Volume” value ([1]; day 24 after inoculation)?
Answer: The value was 395 ± 92 mm^3.

Question: And the “Tumor Volume” value ([1]; day 26 after inoculation)?
Answer: Its value is 509 ± 116 mm^3.

Question: What about the “Tumor Volume” value ([1]; day 28 after inoculation) of the same compound?
Answer: Its value is 767 ± 169 mm^3.

Question: And the “Tumor Volume” value ([1]; day 31 after inoculation)?
Answer: Its value is 1148 ± 175 mm^3.
